In brackets after ≈: the same amount, converted by molar mass. Like-named read-outs stand apart in the source and are kept apart here.
Key:
[1] = test system: Balb/c 3T3 mouse fibroblasts; test: 3T3 in vitro phototoxicity assay (Neutral Red uptake); type: cell-based; conditions: 3T3 fibroblasts
Description: Phototoxicity is defined as a toxic response that is elicited after the first exposure of the skin to certain chemicals and subsequent exposure to light, or that is induced similarly by skin irradiation after systemic administration of a chemical substance. The assay used in this study is designed to detect the phototoxic potential of a chemical by using a simple in vitro cytotoxicity assay with Balb/c 3T3 mouse fibroblasts. The principle of this test is a comparison of the cytotoxicity of a chemical when tested with and without exposure to a non-toxic dose of UVA-light. Cytotoxicity is expressed as a dose dependent reduction of the growth rate of cells as determined by uptake of the vital dye Neutral Red one day after treatment. […]
For this study the Neutral Red uptake (NRU) assay of Borenfreund and Puerner (Borenfreund, E, Puerner J A. Toxicity determined in vitro by morphological alterations and Neutral Red absorption. Toxicology Lett. 1985; 24:119-124) modified according to INVITTOX protocol No 78 (ERGATT/FRAME data bank of in vitro techniques in toxicology. INVITTOX PROTOCOL No 78. 3T3 NRU Phototoxicity Assay. March 1994) has been adapted to examine a possible phototoxic potential of the test item. […]
For each test item the microtiter plates were prepared according to Table 6. […] UV flux was measured with a UV-meter (Dr. Gröbel RM21). […]

[2] = Single dose pharmacokinetics (PK) study in male Wister-Han rats; type: in vivo, rat
Protocol: Pharmacokinetic properties of selected compounds were assessed by single dose PK studies in Male Wister-Han Rats (vendor: Beijing Vital River Laboratory Animal Technology Co., Ltd). Briefly, two groups of animals were administered a single dose of respective compound intravenously (IV, bolus) at 2 mg/kg or orally (PO, by gavage) at 10 mg/kg. Blood samples (approximately 150 μL) were collected via Jugular vein at 5 min (only for IV), 15 min, 30 min, 1 h, 2 h, 4 h, 7 h and 24 h post-dose. Blood samples were placed into tubes containing EDTA-K2 anticoagulant and centrifuged at 3000 rpm for 15 min at 4° C. to separate plasma from the samples. After centrifugation, the resulting plasma was transferred to clean tubes for bioanalysis with LC/MS/MS. The pharmacokinetic parameters were calculated using non-compartmental analysis. The volume of distribution (VSS), half-life (T1/2) and clearance (CL) were obtained based on the plasma concentration-time curve after IV dose. The peak concentration (Cmax) was recorded directly from experimental observations after PO dose. The area under the plasma concentration-time curve (AUC0-last) was calculated using the linear trapezoidal rule up to the last detectable concentration. The bioavailability (F) was calculated based on the dose normalized AUC0-last after IV and PO dose.
The VSS of a drug represents the degree to which a drug is distributed in body tissue rather than the plasma. VSS is directly proportional with the amount of drug distributed into tissue. A higher VSS indicates a greater amount of tissue distribution.

Compound | Phototoxicity factor ([1]; Factor=IC50(−UV)/IC50(+UV)) | IC50 ([1]; Mus musculus, BALB/c3T3, light or radiation study, approx. 5 J/cm^2 UVA light, Neutral Red uptake) [µg/mL] | F ([2]; dose normalized AUC0-last after IV 2 mg/kg and PO 10 mg/kg) [%] | AUC(0-t) ([2]; rat, IV 2 mg/kg, plasma, read-out: IV AUC0-last) [ng·h/mL] | Cmax ([2]; rat, PO 10 mg/kg, plasma) [ng/mL] | AUC(0-t) ([2]; rat, PO 10 mg/kg, plasma, read-out: PO AUC0-last) [ng·h/mL] | clearance ([2]; rat, plasma, IV 2 mg/kg) [mL/min/kg] | half-life ([2]; rat, plasma, IV 2 mg/kg) [h] | Vd ([2]; rat, plasma, IV 2 mg/kg, read-out: Vss) [L/kg]
CCc1nc(N2CCC(N3CC4(CNCCO4)C3)CC2)ccc1-c1cc(C)c2nccn2c1 [Example 14, 2-[1-[6-ethyl-5-(8-methylimidazo[1,2-a]pyridin-6-yl)-2-pyridyl]-4-piperidyl]-5-oxa-2,8-diazaspiro[3.5]nonane] | 1 | 100 (≈ 224 µM) |  |  |  |  |  |  | 
Cc1cc(-c2ccc(N3CCC(N4CCNCC4)CC3)nc2C(F)F)cn2ccnc12 [Example 10, 6-[2-(difluoromethyl)-6-(4-piperazin-1-yl-1-piperidyl)-3-pyridyl]-8-methyl-imidazo[1,2-a]pyridine] |  |  | 69 | 1060 | 257 | 3640 | 28 | 8.6 | 15

From patent US20230279001A1, “IMIDAZO[1,2-A]PYRIDINE COMPOUNDS FOR THE TREATMENT OF AUTOIMMUNE DISEASE” (Hoffmann-La Roche Inc., priority 2020, published 2023)
